Data as given in patent US8088791B2, “Antibacterial agents” (Biots Scientific Management Pty Ltd, priority 2006, dated 2012).
≈ marks a conversion by molar mass, not a printed value. Where two headings read alike, the source gives them in different places.

Assays:
[1] = system: Bacillus subtilis 168CA; assay: Minimum Inhibitory Concentration (MIC) testing, broth microdilution, Bacillus subtilis; format: cell-based; settings: read-out: Bacillus subtilis MICs Activity
Method in brief: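 MICs were scored A (≦8 μg/ml), B (16–64 μg/ml) or C (>64 μg/ml), read as the lowest concentration preventing visible growth by eye and spectrophotometry. Plates incubated overnight (16–20 h) at 37 °C, inoculum OD 0.09 diluted 1:100 in 2× broth, per NCCLS guidelines.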

[2] = system: Staphylococcus aureus ATCC29213; assay: Minimum Inhibitory Concentration (MIC) testing, broth microdilution, Staphylococcus aureus; format: cell-based
Experimental: Compounds of this invention were tested for antimicrobial activity by susceptibility testing in liquid media. MICs for compounds against each strain were determined by a broth microdilution method according to the National Committee for Clinical Laboratory Standards (NCCLS) guidelines. (NCCLS. 2000. Methods for dilution antimicrobial susceptibility tests for bacteria that grow aerobically—fifth edition. Approved standard M7-A5. NCCLS, Wayne, Pa.)
Briefly, test compounds are prepared in 100 μl of 1.6% DMSO solution in multiwell plates. Several bacterial colonies from a freshly streaked plate are transferred to an appropriate rich broth, such as Mueller Hinton. The cell suspension is adjusted to an optical density of 0.09 and further diluted 1:100 with warm 2× broth. This cell suspension is dispensed into the wells containing compound solution so that the final volume is 200 μl. The plates are incubated overnight (16-20 hours) at 37° C. and turbidity is scored by eye and quantified spectrophotometrically. The MIC is defined as the lowest concentration inhibiting visible growth.
Some of the compounds of the Examples were also tested for activity against the pathogenic organism Staphylococcus aureus ATCC29213. […] Activities were again scored as ‘A’ if the MIC was ≦8 micrograms/ml, ‘B’ if the MIC was 16 to 64 micrograms/ml and ‘C’ if the MIC was greater than 64 micrograms/ml.

[3] = Staphylococcus aureus ATCC29213, read-out: Staphylococcus aureus MICs Activity

## NC(=O)c1c(F)ccc(OCc2nc3cc(Br)ccc3s2)c1F [Example 123, 3-(5-Bromo-benzothiazol-2-ylmethoxy)-2,6-difluoro-benzamide]
[1]; Bacillus subtilis 168CA
  MIC: < 8 µg/mL
[2]; [3]
  MIC: < 8 µg/mL

## Cc1ccc(COc2ccc(F)c(C(N)=O)c2F)o1 [Example 185, 2,6-Difluoro-3-[(5-methyl-2-furyl)methoxy]benzenecarboxamide]
[1]; Bacillus subtilis 168CA
  MIC: > 64 µg/mL
[2]; [3]
  MIC: > 64 µg/mL

## NC(=O)c1c(F)ccc(OCc2nc(-c3ccc4c(c3)OCO4)no2)c1F [Example 322, 3-(3-Benzo[1,3]dioxol-5-yl-[1,2,4]oxadiazol-5-ylmethoxy)-2,6-difluoro-benzamide]
[1]; Bacillus subtilis 168CA
  MIC: < 8 µg/mL
[2]; [3]
  MIC: < 8 µg/mL

## Cc1ccc(-c2nc(CCOc3ccc(F)c(C(N)=O)c3F)c(C)o2)cc1 [Example 333, 2,6-Difluoro-3-[2-(5-methyl-2-p-tolyl-oxazol-4-yl)-ethoxy]-benzamide]
[1]; Bacillus subtilis 168CA
  MIC: < 8 µg/mL
[2]; [3]
  MIC: < 8 µg/mL

## COC(=O)c1sc(COc2ccc(F)c(C(N)=O)c2F)nc1-c1ccc(OC)cc1 [Example 313, 2-(3-Carbamoyl-2,4-difluoro-phenoxymethyl)-4-(4-methoxy-phenyl)-thiazole-5-carboxylic acid methyl ester]
[1]; Bacillus subtilis 168CA
  MIC: < 8 µg/mL
[2]; [3]
  MIC: < 8 µg/mL

## CCCCOC(=O)COc1cccc(C(N)=O)c1 [Example 41, Butyl 2-[3-(aminocarbonyl)phenoxy]acetate]
[1]; Bacillus subtilis 168CA
  MIC: 16 to 64 µg/mL (≈ 63.7 to 255 µM)
[2]; [3]
  MIC: 16 to 64 µg/mL (≈ 63.7 to 255 µM)

## Cc1cc(COc2ccc(F)c(C(N)=O)c2F)no1 [Example 182, 2,6-Difluoro-3-[(5-methyl-3-isoxazolyl)methoxy]benzenecarboxamide]
[1]; Bacillus subtilis 168CA
  MIC: > 64 µg/mL
[2]; [3]
  MIC: > 64 µg/mL

## NC(=O)c1cccc(OCc2nc(-c3ccc(Cl)cc3)no2)c1F [Example 267, 3-[3-(4-Chloro-phenyl)-[1,2,4]oxadiazol-5-ylmethoxy]-2-fluoro-benzamide]
[1]; Bacillus subtilis 168CA
  MIC: < 8 µg/mL
[2]; [3]
  MIC: < 8 µg/mL

## NC(=O)c1c(F)ccc(OCc2nc3cc(C4CCCCC4)ccc3s2)c1F [Example 315]
[1]; Bacillus subtilis 168CA
  MIC: < 8 µg/mL
[2]; [3]
  MIC: < 8 µg/mL

## NC(=O)c1c(F)ccc(OCc2nc3cc(-c4ccccc4O)ccc3s2)c1F [Example 157, 2,6-Difluoro-3-[5-(2-hydroxy-phenyl)-benzothiazol-2-ylmethoxy]-benzamide]
[1]; Bacillus subtilis 168CA
  MIC: < 8 µg/mL
[2]; [3]
  MIC: < 8 µg/mL

## C=CCCCCOc1cccc(C(N)=O)c1 [Example 15, 3-(5-Hexenyloxy)benzenecarboxamide]
[1]; Bacillus subtilis 168CA
  MIC: 16 to 64 µg/mL (≈ 73 to 292 µM)
[2]; [3]
  MIC: 16 to 64 µg/mL (≈ 73 to 292 µM)

## CCCCCCCCCOc1ccc(F)c(C(N)=O)c1 [Example 70, 2-Fluoro-5-(nonyloxy)benzenecarboxamide]
[1]; Bacillus subtilis 168CA
  MIC: < 8 µg/mL
[2]; [3]
  MIC: < 8 µg/mL

## NC(=O)c1c(F)ccc(OCc2cc3ccccc3o2)c1F [Example 207, 3-(1-Benzofuran-2-ylmethoxy)-2,6-difluorobenzenecarboxamide]
[1]; Bacillus subtilis 168CA
  MIC: < 8 µg/mL
[2]; [3]
  MIC: 16 to 64 µg/mL (≈ 52.8 to 211 µM)

## Cc1ccc2nc(COc3ccc(F)c(C(N)=O)c3F)sc2c1 [Example 229, 2,6-Difluoro-3-[(6-methyl-1,3-benzothiazol-2-yl)methoxy]benzenecarboxamide]
[1]; Bacillus subtilis 168CA
  MIC: < 8 µg/mL
[2]; [3]
  MIC: < 8 µg/mL

## NC(=O)c1c(F)ccc(OCc2nnc(-c3cccs3)o2)c1F [Example 152, 2,6-Difluoro-3-(5-thiophen-2-yl-[1,3,4]oxadiazol-2-ylmethoxy)-benzamide]
[1]; Bacillus subtilis 168CA
  MIC: 16 to 64 µg/mL (≈ 47.4 to 190 µM)
[2]; [3]
  MIC: 16 to 64 µg/mL (≈ 47.4 to 190 µM)

## NC(=O)c1ccnc(OCc2nc(-c3ccc(Cl)cc3)cs2)c1 [Example 275, 2-[4-(4-Chloro-phenyl)-thiazol-2-ylmethoxy]-isonicotinamide]
[1]; Bacillus subtilis 168CA
  MIC: 16 to 64 µg/mL (≈ 46.3 to 185 µM)
[2]; [3]
  MIC: 16 to 64 µg/mL (≈ 46.3 to 185 µM)

## NC(=O)c1c(F)ccc(OCc2cccc(Oc3ccccc3)c2)c1F [Example 162, 2,6-Difluoro-3-(3-phenoxy-benzyloxy)-benzamide]
[1]; Bacillus subtilis 168CA
  MIC: < 8 µg/mL
[2]; [3]
  MIC: < 8 µg/mL

## NC(=O)c1c(F)ccc(OCc2cccc(F)c2)c1F [Example 101, 2,6-Difluoro-3-(3-fluoro-benzyloxy)-benzamide]
[1]; Bacillus subtilis 168CA
  MIC: 16 to 64 µg/mL (≈ 56.9 to 228 µM)
[2]; [3]
  MIC: 16 to 64 µg/mL (≈ 56.9 to 228 µM)

## CCCCCCCCCOc1ccc(Cl)c(C(N)=O)c1 [Example 68, 2-Chloro-5-(nonyloxy)benzenecarboxamide]
[1]; Bacillus subtilis 168CA
  MIC: < 8 µg/mL
[2]; [3]
  MIC: < 8 µg/mL

## Cc1cccc(COc2ccc(F)c(C(N)=O)c2F)c1 [Example 195, 2,6-Difluoro-3-[(3-methylbenzyl)oxy]benzenecarboxamide]
[1]; Bacillus subtilis 168CA
  MIC: < 8 µg/mL
[2]; [3]
  MIC: 16 to 64 µg/mL (≈ 57.7 to 231 µM)

## NC(=O)c1c(F)ccc(OCc2nccs2)c1F [Example 191, 2,6-Difluoro-3-(1,3-thiazol-2-ylmethoxy)benzenecarboxamide]
[1]; Bacillus subtilis 168CA
  MIC: 16 to 64 µg/mL (≈ 59.2 to 237 µM)
[2]; [3]
  MIC: 16 to 64 µg/mL (≈ 59.2 to 237 µM)

## CCCC/C=C/CCCCOc1cccc(C(N)=O)c1 [Example 58, 3-[(E)-5-Decenyloxy]benzenecarboxamide]
[1]; Bacillus subtilis 168CA
  MIC: < 8 µg/mL
[2]; [3]
  MIC: < 8 µg/mL

## CC(Oc1ccc(F)c(C(N)=O)c1F)c1nc(-c2ccc(Cl)cc2)no1 (stereo not shown) [Example 324, 3-{1-[3-(4-Chloro-phenyl)-[1,2,4]oxadiazol-5-yl]-ethoxy}-2,6-difluoro-benzamide]
[1]; Bacillus subtilis 168CA
  MIC: < 8 µg/mL
[2]; [3]
  MIC: < 8 µg/mL

## NC(=O)c1c(F)ccc(OCc2cc(-c3ccccc3)on2)c1F [Example 163, 2,6-Difluoro-3-(5-phenyl-isoxazol-3-ylmethoxy)-benzamide]
[1]; Bacillus subtilis 168CA
  MIC: < 8 µg/mL
[2]; [3]
  MIC: < 8 µg/mL

## COc1ccc(-c2nc(COc3ccc(F)c(C(N)=O)c3F)sc2Br)cc1 [Example 158, 3-[5-Bromo-4-(4-methoxy-phenyl)-thiazol-2-ylmethoxy]-2,6-difluoro-benzamide]
[1]; Bacillus subtilis 168CA
  MIC: < 8 µg/mL
[2]; [3]
  MIC: < 8 µg/mL

## CCOc1cccc(COc2ccc(F)c(C(N)=O)c2F)c1 [Example 196, 3-[(3-Ethoxybenzyl)oxy]-2,6-difluorobenzenecarboxamide]
[1]; Bacillus subtilis 168CA
  MIC: < 8 µg/mL
[2]; [3]
  MIC: 16 to 64 µg/mL (≈ 52.1 to 208 µM)

## NC(=O)c1cc(OCc2nc(-c3ccc(Cl)cc3)cs2)ccc1F [Example 272, 5-[4-(4-Chloro-phenyl)-thiazol-2-ylmethoxy]-2-fluoro-benzamide]
[1]; Bacillus subtilis 168CA
  MIC: < 8 µg/mL
[2]; [3]
  MIC: < 8 µg/mL

## CCCCCCCOc1cccc(C(N)=O)c1 [Example 24, 3-(Heptyloxy)benzenecarboxamide]
[1]; Bacillus subtilis 168CA
  MIC: < 8 µg/mL
[2]; [3]
  MIC: < 8 µg/mL

## NC(=O)c1cccc(OCCCCO)c1 [Example 42, 3-(4-Hydroxybutoxy)benzenecarboxamide]
[1]; Bacillus subtilis 168CA
  MIC: 16 to 64 µg/mL (≈ 76.5 to 306 µM)
[2]; [3]
  MIC: 16 to 64 µg/mL (≈ 76.5 to 306 µM)

## COc1cccc(-c2ccc3sc(COc4ccc(F)c(C(N)=O)c4F)nc3c2)c1 [Example 143, 2,6-Difluoro-3-[5-(3-methoxy-phenyl)-benzothiazol-2-ylmethoxy]-benzamide]
[1]; Bacillus subtilis 168CA
  MIC: > 64 µg/mL
[2]; [3]
  MIC: < 8 µg/mL

## NC(=O)c1c(F)ccc(OCc2ccoc2)c1F [Example 184, 2,6-Difluoro-3-(3-furylmethoxy)benzenecarboxamide]
[1]; Bacillus subtilis 168CA
  MIC: 16 to 64 µg/mL (≈ 63.2 to 253 µM)
[2]; [3]
  MIC: 16 to 64 µg/mL (≈ 63.2 to 253 µM)

## Cc1ccc(-c2nc(COc3ccc(F)c(C(N)=O)c3F)co2)cc1 [Example 295, 2,6-Difluoro-3-(2-p-tolyl-oxazol-4-ylmethoxy)-benzamide]
[1]; Bacillus subtilis 168CA
  MIC: < 8 µg/mL
[2]; [3]
  MIC: < 8 µg/mL

## NC(=O)c1c(F)ccc(OCc2nc(-c3ccc(Cl)cc3)co2)c1F [Example 309, 3-[4-(4-Chloro-phenyl)-oxazol-2-ylmethoxy]-2,6-difluoro-benzamide]
[1]; Bacillus subtilis 168CA
  MIC: < 8 µg/mL
[2]; [3]
  MIC: < 8 µg/mL

## NC(=O)c1c(F)ccc(OCc2cccc(Cl)c2)c1F [Example 331, 3-(3-Chloro-benzyloxy)-2,6-difluoro-benzamide]
[1]; Bacillus subtilis 168CA
  MIC: < 8 µg/mL
[2]; [3]
  MIC: 16 to 64 µg/mL (≈ 53.7 to 215 µM)

## NC(=O)c1c(F)ccc(OCc2nc(-c3cccnc3)no2)c1F [Example 262, 2,6-Difluoro-3-[3-(3-pyridinyl)-1,2,4-oxadiazol-5-yl]methoxybenzenecarboxamide]
[1]; Bacillus subtilis 168CA
  MIC: 16 to 64 µg/mL (≈ 48.2 to 193 µM)
[2]; [3]
  MIC: 16 to 64 µg/mL (≈ 48.2 to 193 µM)

## COc1ccc(-c2nc(COc3ccc(F)c(C(N)=O)c3F)sc2-c2cccc(N)c2)cc1 [Example 284, 2,6-Difluoro-3-[5-(3-amino-phenyl)-4-(4-methoxy-phenyl)-thiazol-2-ylmethoxy]-benzamide]
[1]; Bacillus subtilis 168CA
  MIC: < 8 µg/mL
[2]; [3]
  MIC: < 8 µg/mL

## CCCCOC(=O)COc1cccc(C(N)=O)c1F [Example 176, Butyl 2-[3-(aminocarbonyl)-2-fluorophenoxy]acetate]
[1]; Bacillus subtilis 168CA
  MIC: < 8 µg/mL
[2]; [3]
  MIC: 16 to 64 µg/mL (≈ 59.4 to 238 µM)

## COc1ccc(-c2nc(COc3ccc(F)c(C(N)=O)c3F)sc2-c2cncs2)cc1 [Example 164, 2,6-Difluoro-3-[4-(4-methoxy-phenyl)-[5,5′]bithiazolyl-2-ylmethoxy]-benzamide]
[1]; Bacillus subtilis, 168CA
  MIC: < 8 µg/mL
[2]; Staphylococcus aureus, ATCC29213, read-out: Staphylococcus aureus MICs Activity
  MIC: < 8 µg/mL

## CCCCCC#CCCOc1cccc(C(N)=O)c1 [Example 51, 3-(3-Nonynyloxy)benzenecarboxamide]
[1]; Bacillus subtilis 168CA
  MIC: < 8 µg/mL
[2]; [3]
  MIC: 16 to 64 µg/mL (≈ 61.7 to 247 µM)

## CCCCCCCCOc1cccc(C(N)=O)c1 [Example 19, 3-(Octyloxy)benzenecarboxamide]
[1]; Bacillus subtilis 168CA
  MIC: < 8 µg/mL
[2]; [3]
  MIC: < 8 µg/mL

## NC(=O)c1c(F)ccc(OCc2nc(-c3ccccc3)cs2)c1F [Example 235, 2,6-Difluoro-3-[(4-phenyl-1,3-thiazol-2-yl)methoxy]benzenecarboxamide]
[1]; Bacillus subtilis 168CA
  MIC: < 8 µg/mL
[2]; [3]
  MIC: < 8 µg/mL
